Laboratory results: EP1801112A1, “Bicyclic pyrimidines and bicyclic 3,4-dihydropyrimidines as inhibitors of cellular proliferation” (Warner-Lambert Company LLC, priority 1998, dated 1999)
Like-named read-outs stand apart in the source and are kept apart here.

Columns and labels:
Format in all cases: biochemical
cdk4/D = cdk4/D (Homo sapiens, UniProt P11802); assay: Cyclin-Dependent Kinase 4 (cdk4) Assay
Experimental: A typical assay, for instance, measures inhibitory activity against the cyclin D dependent kinase 4 enzyme (cdk4/D). […] The cdk4 assay was carried out as follows.
Cyclin-Dependent Kinase 4 (cdk4) Assay
Enzyme assays for IC50 determinations (Tables 1 and 2) and kinetic evaluation were performed in 96 well filter plates (Millipore MADVN6550). The total volume was 0.1 mL containing a final concentration of 20 mM TRIS (tris[hydroxymethyl]aminomethane), at pH 7.4, 50 mM NaCl, 1 mM dithiothreitol, 10 mM MgCl2, 25 µM ATP containing 0.25 µCi of [^32P]ATP, 20 ng of cdk4, 1 µg of retinoblastoma, and appropriate dilutions of a compound of the present invention. All components except the ATP were added to the wells, and the plate was placed on a plate mixer for 2 minutes. The reaction was started by adding [^32P]ATP and the plate was incubated at 25°C for 15 minutes. The reaction was terminated by addition of 0.1 mL of 20% trichloroacetic acid (TCA). The plate was kept at 4°C for at least 1 hour to allow the substrate to precipitate. The wells were then washed five times with 0.2 mL of 10% TCA and ^32P incorporation was determined with a beta plate counter (Wallac Inc., Gaithersburg, MD).

[1] = biological target: T1, FGF-1 (flg) receptor tyrosine kinase (Homo sapiens, UniProt P11362); assay: FGF Receptor Tyrosine Kinase Assay; details: glutamate-tyrosine co-polymer substrate, 50 µM ATP
T1 construct: amplify a fragment of DNA that codes for the intracellular tyrosine kinase domain; made in house; host or cells: SF9 insect cells (baculovirus); crude cell lysate used
Experimental: PDGF and FGF Receptor Tyrosine Kinase Assays
PCR primers were designed to amplify a fragment of DNA that codes for the intracellular tyrosine kinase domain. The fragment was inserted into a baculovirus vector, cotransfected with AcMNPV DNA, and the recombinant virus isolated. SF9 insect cells were infected with the virus to overexpress the protein, and the cell lysate was used for the assay. Assays were performed in 96-well plates (100 µL/incubation/well), and conditions were optimized to measure the incorporation of ^32P from γ^32P-ATP into a glutamate-tyrosine co-polymer substrate. Briefly, to each well was added 82.5 µL of incubation buffer containing 25 mM Hepes (pH 7.0), 150 mM NaCl, 0.1% Triton X-100, 0.2 mM PMSF, 0.2 mM Na3VO4, 10 mM MnCl2, and 750 µg/mL of Poly (4:1) glutamate-tyrosine followed by 2.5 µL of inhibitor and 5 µL of enzyme lysate (7.5 µg/µL FGF-TK or 6.0 µg/µL PDGF-TK) to initiate the reaction. […] The reaction was terminated by the addition of 100 µL of 30% trichloroacetic acid (TCA) containing 20 mM sodium pyrophosphate and precipitation of material onto glass fiber mats (Wallac). […] Nonspecific activity was defined as radioactivity retained on the filters following incubation of samples with buffer alone (no enzyme). Specific enzymatic activity (enzyme plus buffer) was defined as total activity minus nonspecific activity. […]

cdk2/cyclinE = cdk2/cyclinE (Homo sapiens, UniProt P24941); assay: Cyclin-Dependent Kinase Assay cdk2/cyclinE
Experimental: (§1) Cyclin-Dependent Kinase Assays (cdk2/cyclinE, cdk2/cyclinA, cdc2/cyclinB)
(§2) All components except the ATP were added to the wells, and the plate was placed on a plate mixer for 2 minutes. The reaction was begun by addition of [^32P]ATP, and the plate was incubated at 25°C for 15 minutes. The reaction was terminated by addition of 0.1 mL of 20% TCA. The plate was kept at 4°C for at least 1 hour to allow the substrate to precipitate. The wells were then washed five times with 0.2 mL of 10% TCA and ^32P incorporation determined with a beta plate counter (Wallac Inc., Gaithersburg, MD).

cdk2/cyclinA = cdk2/cyclinA (Homo sapiens, UniProt P24941); assay: Cyclin-Dependent Kinase Assay cdk2/cyclinA
Experimental: as §1, §2

cdc2/cyclinB = cdc2/cyclinB (Homo sapiens, UniProt P06493); assay: Cyclin-Dependent Kinase Assay cdc2/cyclinB
Experimental: as §1, §2

[2] = retinoblastoma substrate, read-out: IC50 (µM) cdk2/E
[3] = 25 µM ATP, retinoblastoma substrate, read-out: IC50 (µM) cdk4/D
[4] = retinoblastoma substrate, read-out: IC50 (µM) cdk2/A
[5] = retinoblastoma substrate, read-out: IC50 (µM) cdkl/B

Sequence of cdc2/cyclinB (P06493 whole entry): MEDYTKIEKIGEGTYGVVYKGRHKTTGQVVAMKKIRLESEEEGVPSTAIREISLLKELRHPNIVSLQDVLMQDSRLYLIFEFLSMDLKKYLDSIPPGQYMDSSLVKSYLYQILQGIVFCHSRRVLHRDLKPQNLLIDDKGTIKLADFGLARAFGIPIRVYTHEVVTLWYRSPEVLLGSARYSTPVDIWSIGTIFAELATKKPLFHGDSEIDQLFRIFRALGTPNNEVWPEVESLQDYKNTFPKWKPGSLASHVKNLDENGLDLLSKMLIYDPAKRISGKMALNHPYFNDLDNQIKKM
Sequence of cdc2/cyclinB (P14635 whole entry, further chain): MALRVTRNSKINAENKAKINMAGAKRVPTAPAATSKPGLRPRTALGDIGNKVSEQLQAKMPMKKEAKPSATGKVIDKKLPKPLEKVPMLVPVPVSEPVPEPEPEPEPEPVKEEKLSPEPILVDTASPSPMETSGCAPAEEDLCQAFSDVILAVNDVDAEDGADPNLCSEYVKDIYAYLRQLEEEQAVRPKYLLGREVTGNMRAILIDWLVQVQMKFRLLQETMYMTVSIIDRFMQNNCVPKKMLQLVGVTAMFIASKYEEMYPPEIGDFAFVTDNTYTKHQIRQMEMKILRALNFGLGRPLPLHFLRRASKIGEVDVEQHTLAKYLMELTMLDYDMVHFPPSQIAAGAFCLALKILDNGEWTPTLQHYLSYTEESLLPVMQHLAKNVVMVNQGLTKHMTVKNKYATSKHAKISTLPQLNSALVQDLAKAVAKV
T1 sequence (P11362 478-767 limits assumed): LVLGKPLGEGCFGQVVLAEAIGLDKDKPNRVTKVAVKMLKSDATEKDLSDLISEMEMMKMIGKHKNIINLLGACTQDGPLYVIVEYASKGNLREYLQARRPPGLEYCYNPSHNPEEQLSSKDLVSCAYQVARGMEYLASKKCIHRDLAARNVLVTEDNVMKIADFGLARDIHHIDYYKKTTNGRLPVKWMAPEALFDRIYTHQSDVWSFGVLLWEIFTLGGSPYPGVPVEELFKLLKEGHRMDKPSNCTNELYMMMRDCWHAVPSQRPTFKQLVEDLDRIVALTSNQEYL
Sequence of cdk4/D (P11802 whole entry): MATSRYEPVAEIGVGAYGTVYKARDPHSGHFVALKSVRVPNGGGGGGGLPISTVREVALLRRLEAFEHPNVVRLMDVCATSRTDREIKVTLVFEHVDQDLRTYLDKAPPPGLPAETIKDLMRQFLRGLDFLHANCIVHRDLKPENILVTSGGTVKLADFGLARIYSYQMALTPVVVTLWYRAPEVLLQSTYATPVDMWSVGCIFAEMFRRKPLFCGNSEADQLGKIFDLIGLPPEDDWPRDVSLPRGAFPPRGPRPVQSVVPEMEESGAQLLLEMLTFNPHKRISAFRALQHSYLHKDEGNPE
Sequence of cdk4/D (P24385 whole entry, further chain): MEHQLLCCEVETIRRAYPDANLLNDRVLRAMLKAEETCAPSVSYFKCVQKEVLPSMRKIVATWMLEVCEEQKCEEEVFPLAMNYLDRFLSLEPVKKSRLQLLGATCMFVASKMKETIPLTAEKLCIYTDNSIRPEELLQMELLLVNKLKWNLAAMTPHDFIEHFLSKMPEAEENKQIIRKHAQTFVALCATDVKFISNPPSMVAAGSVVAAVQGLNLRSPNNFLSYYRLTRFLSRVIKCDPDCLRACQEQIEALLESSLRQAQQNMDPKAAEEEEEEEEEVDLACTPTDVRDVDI

SMILES	IC50 (cdk4/D)	IC50 (cdk2/cyclinE)	IC50 (cdk2/cyclinA)	IC50 (cdc2/cyclinB)	other results
COc1ccc(Nc2ncc3c(n2)N(C2CCCC2)C(=O)NC3)cc1 [Example 9, 1-Cyclopentyl-7-(4-methoxyphenylamino)-3,4-dihydro-pyrimido[4,5-d]pyrimidin-2(1H)-one]	5.75 µM				IC50 [1]: 0.36 µM
CCN(CC)CCOc1ccc(Nc2ncc3c(n2)N(C2CCCC2)C(=O)NC3)cc1C [Example 13, 1-Cyclopentyl-7-{3-methyl-4-[2-(diethylamino)ethoxy]phenylamino}-3,4-dihydro-pyrimido[4,5-d]pyrimidin-2(1H)-one]	0.3 µM				IC50 [1]: 0.05 to 0.5 µM
O=C1NCc2cnc(Nc3ccc(N4CCC(CCCO)CC4)cc3)nc2N1C1CCCC1 [Example 20, 1-Cyclopentyl-7-{4-[4-(3-hydroxypropyl)piperidin-1-yl]phenylamino}-3,4-dihydro-pyrimido[4,5-d]pyrimidin-2(1H)-one]	0.42 µM	5.35 µM	2.72 µM	> 40 µM	
CC(C)N1C(=O)NCc2cnc(Nc3ccc(N4CCC(O)CC4)cc3)nc21 [Example 23, 7-[4-(4-Hydroxypiperidin-1-yl)phenylamino]-1-isopropyl-3,4-dihydropyrimido[4,5-d]pyrimidin-2(1H)-one]		16.8 µM	4.39 µM	> 40 µM	
CC(C)N1C(=O)NCc2cnc(Nc3ccc(N4CCC(N(C)C)CC4)cc3)nc21 [Example 24, 7-{4-[4-(Dimethylamino)piperidin-1-yl]phenylamino}-1-isopropyl-3,4-dihydro-pyrimido[4,5-d]pyrimidin-2(1H)-one; compound with trifluoroacetic acid]		34 µM	12.3 µM	> 40 µM	
CC(C)N1C(=O)NCc2cnc(Nc3ccc(-n4cccn4)cc3)nc21 [Example 25, 1-Isopropyl-7-[4-(pyrazol-1-yl)phenylamino]-3,4-dihydro-pyrimido[4,5-d]pyrimidin-2(1H)-one; compound with trifluoroacetic acid]		10 µM	2.31 µM	36.5 µM	
CC(C)N1C(=O)NCc2cnc(Nc3ccc(N4CCC(CCCN5CCOCC5)CC4)cc3)nc21 [Example 26, 1-Isopropyl-7-{4-[4-(3-(morpholin-1-yl)propyl)piperidin-1-yl]phenylamino}-3,4-dihydro-pyrimido[4,5-d]pyrimidin-2(1H)-one]					inhibition at 40 µM (cdk4/D; read-out: % Inhibition at 40 µM cdk4/D): 47%
CN1CCN(c2ccc(Nc3ncc4c(n3)N(C)C(=O)NC4)cc2)CC1 [Example 28, 1-Methyl-7-[4-(4-methylpiperazin-1-yl)phenylamino]-3,4-dihydropyrimido[4,5-d]pyrimidin-2(1H)-one; compound with trifluoroacetic acid]			> 40 µM	> 40 µM	
CN1C(=O)NCc2cnc(Nc3ccc(N4CCC(O)CC4)cc3)nc21 [Example 29, 7-[4-(4-Hydroxypiperidin-1-yl)phenylamino]-1-methyl-3,4-dihydropyrimido[4,5-d]pyrimidin-2(1H)-one; compound with trifluoroacetic acid]	> 40 µM		> 40 µM	> 40 µM	
CN1C(=O)NCc2cnc(Nc3ccc(N4CCC(N(C)C)CC4)cc3)nc21 [Example 30, 7-{4-[4-(Dimethylamino)piperidin-1-yl]phenylamino}-1-methyl-3,4-dihydropyrimido[4,5-d]pyrimidin-2(1H)-one; compound with trifluoroacetic acid]	18.2 µM		> 40 µM	> 40 µM	
CN1C(=O)NCc2cnc(Nc3ccc(-n4cccn4)cc3)nc21 [Example 31, 1-Methyl-7-[4-(pyrazol-1-yl)phenylamino]-3,4-dihydro-pyrimido[4,5-d]pyrimidin-2(1H)-one; compound with trifluoroacetic acid]			> 40 µM	> 40 µM	
O=c1ncc2cnc(Nc3ccc(N4CCC(O)CC4)cc3)nc2n1C1CCCC1 [Example 33, 1-Cyclopentyl-7-[4-(4-hydroxypiperidin-1-yl)phenylamino]pyrimido[4,5-d]pyrimidin-2(1H)-one]					IC50 (cdk2/cyclinE; [2]): 4.2 µM; IC50 (cdk4/D; [3]): 0.038 µM; IC50 (cdk2/cyclinA; [4]): 0.98 µM; IC50 (cdc2/cyclinB; [5]): 9.76 µM
CCN(CC)CCOc1ccc(Nc2ncc3cnc(=O)n(C4CCCC4)c3n2)cc1C [Example 34, 1-Cyclopentyl-7-{3-methyl-4-[2-(diethylamino)ethoxy]-phenylamino}pyrimido[4,5-d]pyrimidin-2(1H)-one]	0.079 µM	3.15 µM	3.22 µM	7.51 µM	
COc1ccc(Nc2ncc3cnc(=O)n(C4CCCC4)c3n2)cc1 [Example 37, 1-Cyclopentyl-7-(4-methoxyphenylamino)pyrimido[4,5-d]pyrimidin-2(1H)-one]	0.22 µM	0.9 µM	0.4 µM	4.76 µM	
O=c1ncc2cnc(Nc3ccc(N4CCCCC4)cc3)nc2n1C1CCCC1 [Example 38, 1-Cyclopentyl-7-[4-(piperidin-1-yl)phenylamino]pyrimido[4,5-d]pyrimidin-2(1H)-one]					IC50 (cdk2/cyclinE; [2]): 2.78 µM; IC50 (cdk4/D; [3]): 0.15 µM; IC50 (cdk2/cyclinA; [4]): 0.77 µM; IC50 (cdc2/cyclinB; [5]): 35.2 µM
CC(C)n1c(=O)ncc2cnc(Nc3ccc(-n4cccn4)cc3)nc21 [Example 42, 1-Isopropyl-7-[4-(pyrazol-1-yl)phenylamino]pyrimido[4,5-d]pyrimidin-2(1H)-one]	3.9 µM	> 40 µM	5.81 µM	> 40 µM	
CN1CCN(c2ccc(Nc3ncc4cnc(=O)n(C)c4n3)cc2)CC1 [Example 45, 1-Methyl-7-[4-(4-methylpiperazin-1-yl)phenylamino]pyrimido[4,5-d]pyrimidin-2(1H)-one]	16.2 µM		> 40 µM	> 40 µM	
CN(C)C1CCN(c2ccc(Nc3ncc4cnc(=O)n(C)c4n3)cc2)CC1 [Example 46, 7-{4-[4-(Dimethylamino)piperidin-1-yl]phenylamino}-1-methyl-pyrimido[4,5-d]pyrimidin-2(1H)-one]	> 40 µM		> 40 µM	> 40 µM	IC50 [1]: 22.6 µM
Cn1c(=O)ncc2cnc(Nc3ccc(-n4cccn4)cc3)nc21 [Example 47, 1-Methyl-7-[4-(pyrazol-1-yl)phenylamino]pyrimido[4,5-d]pyrimidin-2(1H)-one]	> 40 µM		> 40 µM	> 40 µM	
